The source of these data is PMC7461584, “N-(2′-Hydroxyphenyl)-2-Propylpentanamide (HO-AAVPA) Inhibits HDAC1 and Increases the Translocation of HMGB1 Levels in Human Cervical Cancer Cells” (International Journal of Molecular Sciences, 2020).

Each structure is given as a SMILES string. Values joined by “and” are separate entries in the source; they are usually repeats but may differ in a detail not shown here. Equal values may be shown once. “Also recorded” adds a separate entry of the source.

The test system of series [1] is HMGB1 in SiHa cells. The experiment in a line: Localization of HMGB1 by confocal microscopy. Type of series: cell-based, human. As to conditions: 12 h; for HMGB1 fluorescence intensity: vs DMSO vehicle. As for the experimental part: A total of 20 × 10^3 cells per well were added to 24-well plates and incubated for 24 h in DMEM with FBS. Then, the cells were washed with phosphate buffered saline (PBS 1X). The groups received the following treatments: VPA at 1.4 and 0.35 mM, HO-AAVPA at 0.2 and 0.005 mM, vehicle (DMSO 0.1%), and incubated for 12 h. After incubation, the cells were fixed with paraformaldehyde (PFA 4%) at 37 °C for 20 min and permeabilized (PBS Tween-Triton 0.5%) for 5 min. Subsequently, the cells were washed and the primary antibody, anti-HMGB1 (GTX101277, GeneTex, Alton Pkwy Irvine, CA, USA), was added at a ratio of 1:1000 and incubated overnight. The secondary antibody, donkey anti-rabbit IgG H&L (Alexa Fluor 647, Thermo Fisher Scientific, México City, Mexico), was added at a ratio of 1:1000 and incubated at 4 °C for 4 h. Finally, the slides were washed with PBS and mounted with Vectashield (Mounting Laboratories, Inc. Burlingame, CA, USA).
The images were collected and analyzed with an Axioskop 2 mot plus confocal fluorescence microscope (Carl Zeiss, Mexico City, Mexico) at EC Plan-Neofluar 20×–40×/0.5 Ph2: LP 650, LP 505.

Series [2] has as its system ROS (O2−·) levels in SiHa cells. The experiment in a line: Quantification of superoxide anion by electronic paramagnetic resonance. Type of series: cell-based, human. Particulars: 48 h. How it is done:
The SiHa cells (500 × 10^3) were seeded in a […] dish and kept at 37 °C in a humidified atmosphere with 5% CO2 until they reached 70% confluence. After, the cells were treated with two different concentrations of VPA and HO-AAVPA (1.4 and 0.2 mM) and maintained for 48 h, the experiment was performed in triplicate and used as a control for data comparison with the SiHa cells treated only with medium. Next, the cells were trypsinized and centrifuged at 3000 rpm for 10 min, and the cell pellet was treated with the radical scavenger CM-H (1 hydroxy-3-methoxycarbonyl-2,2, 5,5-tetramethyl pyrrolidine) diluted in Krebs buffer (99 mM NaCl, 4.69 mM KCl, 2.5 mM CaCl2 × 2H2O, 1.2 mM MgSO4 × 7 H2O, 2.5 mM NaHCO3, 1.03 mM KH2PO4, 5.6 mM D-Glucose, and 20 mM Na-HEPES) with sodium diethyldithiocarbamate trihydrate (DETEC; 5 μM) and deferoxamine methane sulfonate salt (DF 25 μM) at a 89:3:8% v/v ratio of Krebs buffer: DETEC:DF. The stock solution of CMH (10 mM) was used to dilute each sample to 0.5 mM. The CM-H solution and the sample preparation were processed inside a nitrogen atmosphere chamber. The samples containing CM-H were incubated for 30 min at 37 °C with constant shaking. After the samples were centrifuged at 3000 rpm for 15 min, 50 µL of the supernatant was taken up with capillaries (Corning, Glendale, CA, USA) inside the nitrogen chamber, and each of the capillaries were sealed on both sides to determine the EPR measurements.
The measurements of O2^−· formation were performed in a Bruker e-scan spectrometer with the following parameters recorded: magnetic field 3490 G, window: 60 G, amplitude: 1.5 G, gain: 56.4, power: 0.0155 mW; and frequency: 9.743 GHz. WinEPR Acquisition software was used to analyze the results. The intensity of each sample was measured and normalized to the cell number for each sample. Finally, the result was expressed as the intensity for 10,000 cells.

Details of series [3]: method as in PMID 32387339, PMID 30236821, PMID 3146521. Particulars: rat model; ref [19],[20],[21]; cited from earlier work.
For series [4], the system named is cervical cancer cells. Details: method as in PMID 26942921. As to conditions: ref [25], cited from earlier work.
The target of series [5] is T1, HDAC1 (Homo sapiens, UniProt Q13547).
T1 construct: purchased Enzo Life Sciences BML-AK511
T1 sequence (Q13547 whole entry): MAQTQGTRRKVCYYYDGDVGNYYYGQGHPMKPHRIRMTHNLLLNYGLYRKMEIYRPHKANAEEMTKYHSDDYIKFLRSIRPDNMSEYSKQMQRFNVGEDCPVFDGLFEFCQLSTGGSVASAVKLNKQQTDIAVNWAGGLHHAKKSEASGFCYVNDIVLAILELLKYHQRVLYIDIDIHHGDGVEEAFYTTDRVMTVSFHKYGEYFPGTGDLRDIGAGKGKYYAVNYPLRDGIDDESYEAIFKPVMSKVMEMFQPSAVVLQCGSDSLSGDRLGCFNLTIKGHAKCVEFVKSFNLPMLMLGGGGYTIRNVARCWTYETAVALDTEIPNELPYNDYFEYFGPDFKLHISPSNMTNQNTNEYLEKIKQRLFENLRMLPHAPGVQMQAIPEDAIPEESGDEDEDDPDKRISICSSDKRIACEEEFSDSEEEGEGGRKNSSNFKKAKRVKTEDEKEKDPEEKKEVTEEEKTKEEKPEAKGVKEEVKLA
The experiment in a line: Fluor de LYS HDAC1 inhibitory activity assay. It is filed as biochemical. As to conditions: 250 ng/well, 37 °C, 5 µM substrate; mean ± SE.

Series [6] deals with T2, HDAC6 (Homo sapiens, UniProt Q9UBN7).
T2 construct: purchased Enzo Life Sciences BML-AK516
T2 sequence (Q9UBN7 1-1215): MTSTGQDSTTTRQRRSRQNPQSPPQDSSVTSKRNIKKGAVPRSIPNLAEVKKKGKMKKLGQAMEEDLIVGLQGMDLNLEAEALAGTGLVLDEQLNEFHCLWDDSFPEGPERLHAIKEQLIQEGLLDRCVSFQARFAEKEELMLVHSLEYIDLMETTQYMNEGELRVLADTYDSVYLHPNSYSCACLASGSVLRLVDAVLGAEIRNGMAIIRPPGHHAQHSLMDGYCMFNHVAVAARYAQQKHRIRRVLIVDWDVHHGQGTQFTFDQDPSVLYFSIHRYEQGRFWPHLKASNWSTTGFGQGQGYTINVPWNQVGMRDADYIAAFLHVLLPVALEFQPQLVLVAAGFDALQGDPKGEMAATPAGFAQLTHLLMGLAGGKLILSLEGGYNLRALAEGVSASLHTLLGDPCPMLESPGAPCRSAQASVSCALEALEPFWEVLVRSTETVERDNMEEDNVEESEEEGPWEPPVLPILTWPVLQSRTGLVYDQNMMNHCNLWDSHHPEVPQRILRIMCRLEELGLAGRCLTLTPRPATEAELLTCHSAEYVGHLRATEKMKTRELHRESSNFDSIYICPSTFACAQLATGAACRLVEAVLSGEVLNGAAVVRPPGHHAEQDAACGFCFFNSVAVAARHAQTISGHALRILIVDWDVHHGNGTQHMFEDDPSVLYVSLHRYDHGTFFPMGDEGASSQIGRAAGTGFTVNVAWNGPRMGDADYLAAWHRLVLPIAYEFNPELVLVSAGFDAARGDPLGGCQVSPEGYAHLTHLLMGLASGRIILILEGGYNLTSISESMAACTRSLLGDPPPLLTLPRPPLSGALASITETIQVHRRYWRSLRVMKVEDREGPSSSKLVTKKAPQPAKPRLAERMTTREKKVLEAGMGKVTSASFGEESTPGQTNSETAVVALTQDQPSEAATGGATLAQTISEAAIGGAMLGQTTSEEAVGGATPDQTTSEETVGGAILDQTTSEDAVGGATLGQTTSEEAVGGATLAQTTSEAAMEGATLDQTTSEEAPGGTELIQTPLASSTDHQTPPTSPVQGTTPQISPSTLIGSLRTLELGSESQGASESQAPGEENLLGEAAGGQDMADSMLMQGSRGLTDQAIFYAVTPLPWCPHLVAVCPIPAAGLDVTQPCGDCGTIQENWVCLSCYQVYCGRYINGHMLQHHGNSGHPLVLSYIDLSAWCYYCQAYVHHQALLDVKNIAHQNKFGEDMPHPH
The experiment in a line: Fluor de LYS HDAC6 inhibitory activity assay. Type of series: biochemical.

In series [7] the target is T3, HDAC8 (Homo sapiens, UniProt Q9BY41).
T3 construct: purchased Enzo Life Sciences BML-AK518
T3 sequence (Q9BY41 1-377): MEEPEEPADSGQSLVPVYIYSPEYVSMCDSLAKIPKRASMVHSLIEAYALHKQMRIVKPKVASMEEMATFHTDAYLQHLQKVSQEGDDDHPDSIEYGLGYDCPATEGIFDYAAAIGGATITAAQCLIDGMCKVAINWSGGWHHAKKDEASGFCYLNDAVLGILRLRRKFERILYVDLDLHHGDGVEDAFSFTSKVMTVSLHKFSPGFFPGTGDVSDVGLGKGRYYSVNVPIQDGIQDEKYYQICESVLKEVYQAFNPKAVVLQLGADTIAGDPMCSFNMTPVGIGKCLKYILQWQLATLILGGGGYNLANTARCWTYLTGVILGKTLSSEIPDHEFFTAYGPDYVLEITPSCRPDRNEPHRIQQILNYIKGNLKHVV
The experiment in a line: Fluor de LYS HDAC8 inhibitory activity assay. Type of series: biochemical.

Series [8] is described as follows: Cell viability by MTT assay. Type of series: cell-based, human. Particulars: human, SiHa cells, at 2.5 mM. As for the experimental part: (§1) SiHa cells were kindly donated by Dr. Nicolás Villegas Sepulveda from the Department of Molecular Biomedicine, […], México. SiHa cells were cultured in Dulbecco’s modified Eagle’s medium (DMEM Gibco, Life Technologies, Invitrogen, Sigma-Aldrich Co., Toluca City Mexico), supplemented with 10% fetal bovine serum (FBS, Biowest, Kansas City, MO, USA) and antibiotic and antimycotic agents (Gibco, Fisher Scientific UK Ltd, Loughborough, UK). The cultures were kept at 37 °C in a humidified atmosphere with 5% CO2.
(§2) After seeding 10 × 10^3 cells per well in transparent 96-well plates, the cells were incubated for 24 h in DMEM medium with FBS. Then, the cells were incubated with different concentrations of HO-AAVPA (0.5, 1.0, 1.5, 2.0, and 2.5 mM) and VPA (0.625, 1.25, 2.5, 5.0, and 7.5 mM). After 48 h of incubation, the supernatant was removed. Then, 20 μL of MTT solution (0.5 mg/mL) in buffer was added, and the cells were incubated at 37 °C for 4 h. After the MTT solution was removed from all the wells, the formazan salts were solubilized with 100 μL of DMSO, and the absorbance of each well was read at 550 nm on a spectrophotometer (Multiskan EX Microplate Photometer, Thermo Scientific, Mexico).
A general note: Tetrazolium assays rely on reduction of a dye to a coloured formazan, in cell work by metabolically active cells.

Series [9] has as its system SiHa cells. The experiment in a line: Cell viability by MTT assay. It is filed as cell-based, human. Particulars: 48 h. As for the experimental part: as §1, §2

On to `CCCC(CCC)C(=O)O` [VPA, valproic acid, reference compound], for which, in series [1] (HO-AAVPA 0.2 mM, VPA 1.4 mM), the HMGB1 localization result was “HMGB1 is expressed in a larger amount in the nucleus; also recorded: observed predominantly in the nucleus” and the HMGB1 fluorescence intensity entry is recorded as “increase in the fluorescence was more; also recorded: significant increase of HMGB1”. In addition, in series [2] (0.2 mM), the “ROS (O2−·) production” value is recorded as “did not have a significant difference in ROS production”. For the same molecule, the “ROS (O2−·) production” value in series [2] (1.4 mM) was “did not have a significant difference in ROS production”. Further, the half-life in [3] is given as 1 h. The “concentration that did not produce significant effect on the proliferation” value in series [4] (cervical cancer cells) is 1 mM. Besides, in series [4] (other studies), the “concentration with cytotoxic effects” value is around 3000 µM.
`CCCC(CCC)C(=O)Nc1ccccc1O` [HO-AAVPA, N-(2′-hydroxyphenyl)-2-propylpentanamide]: the IC50 is 153 µM and 154 µM in series [5]; above 1000 µM in series [6] (400 ng/well, 37 °C, 12 µM substrate, mean ± SE); above 1000 µM in series [7] (1 U/well, 30 °C, 50 µM substrate, mean ± SE); 1600 µM in series [9] (Homo sapiens, SiHa, MTT). For the same molecule, the “inhibitory activity on HDAC6” value in series [6] (tested at 1-1000 µM) is reported as “no inhibitory activity; also recorded: no inhibition was observed”. Moreover, in series [7] (tested at 1-1000 µM), the “inhibitory activity on HDAC8” value was “no inhibitory activity; also recorded: no inhibition was observed”. This molecule also registered a viability at 48 h, 2.5 mM in [8] of around 25%. In addition, the “concentration causing cell death” value in series [9] (concentration-dependent) is recorded as at least 1 mM. In addition, the HMGB1 localization result in series [1] (HO-AAVPA 0.2 mM, VPA 1.4 mM) is on record as “high amount of HMGB1 in the cytoplasm than in the nucleus; also recorded: greater intensity of translocation of HMGB1 from the nucleus to the cytoplasm”; in series [1] (low concentrations: HO-AAVPA 0.005 mM, VPA 0.35 mM) it was “more HMGB1 in the cytoplasm than VPA”. Further, in [1] (HO-AAVPA 0.2 mM, VPA 1.4 mM), the HMGB1 fluorescence intensity result is “increase in the fluorescence was more; also recorded: significant increase of HMGB1; also recorded: statistically higher”. Further, the “ROS (O2−·) production” value in series [2] (0.2 mM) is recorded as “slightly lower, but still higher than the control”; in series [2] (1.4 mM) it was “ROS production was greater; also recorded: increased”. Also, the half-life in [3] was 4 h.

Broadly, the half-life is the time in which the quantity being followed falls by half. One may read the IC50 as the midpoint of a concentration-inhibition curve. Broadly, the viability is the share of living cells, or the viability signal relative to a control.
